Results as given in patent US11174232B2, “Substituted heterocyclyl derivatives as CDK inhibitors” (Aurigene Discovery Technologies Limited, priority 2015, dated 2021).

Molecular target: CDK7/CycH/MNAT1 (Homo sapiens (Human), UniProt P50613)
Experiment: Biochemical Assay for CDK7 (TR-FRET kinase assay)
Settings: 60 min pre-incubation with kinase, 1 mM ATP; for inhibition at 10 µM / % inhibition @ 10 μM: 10 μM compound
How it was run: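 TR-FRET with 5 nM CDK7/CycH/MNAT1, compound pre-incubated 60 min at room temperature, then 100 nM ULight-MBP and 1 mM ATP for 60 min; stopped with EDTA, Eu anti-phospho-MBP read at 665/615 nm. 1% DMSO; IC50 from sigmoidal fit. Time-dependence tested with 20, 60, 180 min pre-incubation.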

Sequence of CDK7/CycH/MNAT1 (P50613 whole entry): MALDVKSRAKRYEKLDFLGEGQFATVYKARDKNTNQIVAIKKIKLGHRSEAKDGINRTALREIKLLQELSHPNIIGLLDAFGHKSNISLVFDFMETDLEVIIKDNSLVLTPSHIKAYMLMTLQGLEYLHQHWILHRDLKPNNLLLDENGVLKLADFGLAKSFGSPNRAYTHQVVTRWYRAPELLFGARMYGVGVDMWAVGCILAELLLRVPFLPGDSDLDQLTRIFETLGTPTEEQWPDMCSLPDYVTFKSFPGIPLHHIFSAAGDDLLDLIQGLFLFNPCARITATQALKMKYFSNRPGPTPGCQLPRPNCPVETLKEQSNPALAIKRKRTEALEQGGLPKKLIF
Sequence of CDK7/CycH/MNAT1 (P51946 whole entry partner): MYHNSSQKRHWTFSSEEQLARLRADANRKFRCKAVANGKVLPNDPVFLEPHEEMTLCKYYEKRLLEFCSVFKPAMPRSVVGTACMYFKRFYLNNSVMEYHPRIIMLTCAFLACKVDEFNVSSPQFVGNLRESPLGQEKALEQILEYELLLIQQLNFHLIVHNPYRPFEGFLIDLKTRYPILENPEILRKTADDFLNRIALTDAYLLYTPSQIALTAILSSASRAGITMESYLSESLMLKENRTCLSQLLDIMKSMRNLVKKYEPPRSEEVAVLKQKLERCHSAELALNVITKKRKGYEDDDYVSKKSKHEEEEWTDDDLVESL
Sequence of CDK7/CycH/MNAT1 (P51948 whole entry partner): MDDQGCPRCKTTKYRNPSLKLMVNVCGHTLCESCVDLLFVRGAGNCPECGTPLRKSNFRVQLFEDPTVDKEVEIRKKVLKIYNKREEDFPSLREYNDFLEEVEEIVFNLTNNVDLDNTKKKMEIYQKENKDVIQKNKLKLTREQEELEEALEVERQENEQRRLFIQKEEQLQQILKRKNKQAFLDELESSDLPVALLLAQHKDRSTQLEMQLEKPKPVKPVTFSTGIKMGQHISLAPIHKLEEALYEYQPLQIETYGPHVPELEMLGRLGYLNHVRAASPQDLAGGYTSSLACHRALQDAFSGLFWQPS

Row | SMILES | inhibition at 10 µM [%] | IC50 [nM] | % inhibition @ 10 μM [%]
1 | C=CC(=O)Nc1ccc(-c2cc(C(C)C(=O)Nc3cc(C4CC4)[nH]n3)ccc2F)cc1F (stereo not shown) [Compound 23, N-(5′-(1-((5-cyclopropyl-1H-pyrazol-3-yl)amino)-1-oxopropan-2-yl)-2′,3-difluoro-[1,1′-biphenyl]-4-yl)acrylamide] | 98 | 25 to 100 | –
2 | C=CC(=O)Nc1ccc(-c2cccc(CC(=O)Nc3cc(C)[nH]n3)c2)cc1 [Compound 86, N-(3′-(2-((5-Methyl-1H-pyrazol-3-yl)amino)-2-oxoethyl)-[1,1′-biphenyl]-4-yl)acrylamide] | 48 | – | –
3 | CC(C(=O)Nc1cc(C2CC2)[nH]n1)c1cccc(-c2ccc(NC(=O)/C=C/CN3CCC(C#N)C3)nc2)c1 (stereo not shown) [Compound 78, (E)-4-(3-cyanopyrrolidin-1-yl)-N-(5-(3-(1-((5-cyclopropyl-1H-pyrazol-3-yl)amino)-1-oxopropan-2-yl)phenyl)pyridin-2-yl)but-2-enamide] | 100 | 25 to 100 | –
4 | CC(C)(C(=O)Nc1cc(C2CC2)[nH]n1)c1cccc(-c2ccc(NC(=O)/C=C/CN3CCCC3)nc2)c1 [Compound 95, (E)-N-(5-(3-(1-((5-cyclopropyl-1H-pyrazol-3-yl)amino)-2-methyl-1-oxopropan-2-yl)phenyl)pyridin-2-yl)-4-(pyrrolidin-1-yl)but-2-enamide] | 71 | > 100 | –
5 | CCN(CC)C/C=C/C(=O)Nc1ccc(-c2cccc(C(C)C(=O)Nc3cc(C4CC4)[nH]n3)c2)cn1 (stereo not shown) [Compound 55, (E)-N-(5-(3-(1-((5-cyclopropyl-1H-pyrazol-3-yl)amino)-1-oxopropan-2-yl)phenyl)pyridin-2-yl)-4-(diethylamino)but-2-enamide] | 95 | < 25 | –
6 | CC(C(=O)Nc1cc(C2CC2)[nH]n1)c1cccc(-c2ccc(NC(=O)/C=C/CN(C)C)cc2)c1 (single isomer, unassigned) [Compound 2, (E)-N-(3′-(1-((5-cyclopropyl-1H-pyrazol-3-yl)amino)-1-oxopropan-2-yl)-[1,1′-biphenyl]-4-yl)-4-(dimethylamino)but-2-enamide] | – | > 100 | 69
7 | COC[C@@H]1C[C@H](F)CN1C/C=C/C(=O)Nc1ccc(-c2cccc(C(C)C(=O)Nc3cc(C4CC4)[nH]n3)c2)cn1 (stereo partly drawn) [Compound 77, (E)-N-(5-(3-(1-((5-cyclopropyl-1H-pyrazol-3-yl)amino)-1-oxopropan-2-yl)phenyl)pyridin-2-yl)-4-((2S,4S)-4-fluoro-2-(methoxymethyl)pyrrolidin-1-yl)but-2-enamide] | 98 | 25 to 100 | –
8 | CC(C(=O)Nc1cc(C2CC2)[nH]n1)c1cccc(-c2ccc(NC(=O)/C=C/CN3CC[C@H](F)C3)nc2)c1 (single isomer, unassigned) [Compound 48] | – | 25 to 100 | 90
9 | CC(C)C(C(=O)Nc1cc(C2CC2)[nH]n1)c1cccc(-c2ccc(NC(=O)/C=C/CN(C)C)c(F)c2)c1 (stereo not shown) [Compound 43, (E)-N-(3′-(1-((5-cyclopropyl-1H-pyrazol-3-yl)amino)-3-methyl-1-oxobutan-2-yl)-3-fluoro-[1,1′-biphenyl]-4-yl)-4-(dimethylamino)but-2-enamide] | 99 | < 25 | –
10 | CC(C(=O)Nc1cc(C2CC2)[nH]n1)c1cccc(-c2ccc(NC(=O)/C=C/CN3CC[C@@H](F)C3)nc2)c1 (single isomer, unassigned) [Compound 51] | – | > 100 | 90
11 | C=CC(=O)Nc1c(C)cc(-c2cccc(C(C)C(=O)Nc3cc(C4CC4)[nH]n3)c2)cc1C (stereo not shown) [Compound 67, N-(3′-(1-((5-cyclopropyl-1H-pyrazol-3-yl)amino)-1-oxopropan-2-yl)-3,5-dimethyl-[1,1′-biphenyl]-4-yl)acrylamide] | 79 | > 100 | –
12 | CC(C(=O)Nc1cc(C2CC2)[nH]n1)c1cccc(-c2ccc(NC(=O)/C=C/CN3CCOCC3)cn2)c1 (stereo not shown) [Compound 35, (E)-N-(6-(3-(1-((5-cyclopropyl-1H-pyrazol-3-yl)amino)-1-oxopropan-2-yl)phenyl)pyridin-3-yl)-4-morpholinobut-2-enamide] | 86 | > 100 | –
13 | CC(C(=O)Nc1cc(C2CC2)[nH]n1)c1cccc(-c2ccc(NC(=O)/C=C/CN3CC[C@H](F)C3)nc2)c1 (single isomer, unassigned) [Compound 47] | 91 | < 25 | –
14 | CC(C(=O)Nc1cc(C2CCC2)[nH]n1)c1cccc(-c2ccc(NC(=O)/C=C/CN(C)C)cc2)c1 (stereo not shown) [Compound 15, (E)-N-(3′-(1-((5-cyclobutyl-1H-pyrazol-3-yl)amino)-1-oxopropan-2-yl)-[1,1′-biphenyl]-4-yl)-4-(dimethylamino)but-2-enamide] | 93 | < 25 | –
15 | CC(C(=O)Nc1cc(C2CC2)[nH]n1)c1cccc(-c2ccc(NC(=O)/C=C/CN3CCCC3)nc2)c1 (stereo not shown) [Compound 52, (E)-N-(5-(3-(1-((5-cyclopropyl-1H-pyrazol-3-yl)amino)-1-oxopropan-2-yl)phenyl)pyridin-2-yl)-4-(pyrrolidin-1-yl)but-2-enamide] | 91 | < 25 | –
16 | C=CC(=O)Nc1ccc(-c2cccc(C(CC)C(=O)Nc3cc(C4CC4)[nH]n3)c2)nc1 (stereo not shown) [Compound 26, 2-(3-(5-acrylamidopyridin-2-yl)phenyl)-N-(5-cyclopropyl-1H-pyrazol-3-yl)butanamide] | 96 | < 25 | –
17 | CC(C(=O)Nc1cc(C2CC2)[nH]n1)c1cccc(-c2ccc(NC(=O)/C=C/CN3CCOCC3)nc2)c1 (single isomer, unassigned) [Compound 12, (E)-N-(5-(3-(1-((5-cyclopropyl-1H-pyrazol-3-yl)amino)-1-oxopropan-2-yl)phenyl)pyridin-2-yl)-4-morpholinobut-2-enamide] | – | < 25 | 98
18 | CC(C(=O)Nc1cc(C2CC2)[nH]n1)c1cccc(-c2ccc(NC(=O)/C=C/CN3CCOCC3)c(F)c2)c1 (stereo not shown) [Compound 34, (E)-N-(3′-(1-((5-cyclopropyl-1H-pyrazol-3-yl)amino)-1-oxopropan-2-yl)-3-fluoro-[1,1′-biphenyl]-4-yl)-4-morpholinobut-2-enamide] | 88 | > 100 | –
19 | CC(C(=O)Nc1cc(C2CC2)[nH]n1)c1cccc(-c2ccc(NC(=O)/C=C/CN3CCC[C@H]3CC#N)nc2)c1 (stereo partly drawn) [Compound 82, (E)-4-((S)-2-(cyanomethyl)pyrrolidin-1-yl)-N-(5-(3-(1-((5-cyclopropyl-1H-pyrazol-3-yl)amino)-1-oxopropan-2-yl)phenyl)pyridin-2-yl)but-2-enamide] | 99 | 25 to 100 | –
20 | CC(C(=O)Nc1cc(C2CC2)[nH]n1)c1cccc(-c2ccc(NC/C=C/C(=O)N(C)C)cn2)c1 (stereo not shown) [Compound 37, (E)-4-((6-(3-(1-((5-cyclopropyl-1H-pyrazol-3-yl)amino)-1-oxopropan-2-yl)phenyl)pyridin-3-yl)amino)-N,N-dimethylbut-2-enamide] | 67 | > 100 | –
21 | CC(C(=O)Nc1cc(C2CC2)[nH]n1)c1cccc(-c2ccc(NC(=O)/C=C/CN3CCC(F)C3)nc2)c1 (stereo not shown) [Compound 45, (E)-N-(5-(3-(1-((5-cyclopropyl-1H-pyrazol-3-yl)amino)-1-oxopropan-2-yl)phenyl)pyridin-2-yl)-4-(3-fluoropyrrolidin-1-yl)but-2-enamide] | 89 | < 25 | –
22 | C=CC(=O)Nc1ccc(-c2cccc(C(C)C(=O)Nc3cc(C4CC4)[nH]n3)c2)cn1 (single isomer, unassigned) [Compound 22, N-(5-(3-(1-((5-cyclopropyl-1H-pyrazol-3-yl)amino)-1-oxopropan-2-yl)phenyl)pyridin-2-yl)acrylamide] | – | < 25 | 97
